Assay results from patent US4256751A, “Tetrahydroisoquinoline derivatives” (Tanabe Seiyaku Co., Ltd., priority 1978, dated 1981).

Columns and labels:
[1] = test system: ADP-induced platelet aggregation; test: Platelet aggregation-inhibiting activity (ADP-induced, diluted platelet-rich plasma); type: cell-based, dog (male beagle); conditions: Canis lupus familiaris, test compound solution 100 μg/ml, added 2 minutes before ADP, beagle PRP, read-out: Platelet aggregation inhibiting activity (percentage inhibition of the second wave of ADP-induced platelet aggregation)
Protocol: The bottom layer was further centrifuged at 1000×g for 15 minutes to give platelet-poor plasma (PPP) as the supernatant solution.

ACE = test: ACE-inhibitory activity in vivo (pressor response to angiotensin I); parameters: species or system rat (normotensive); conditions: 0.1 mg/kg intravenously; angiotensin I 300 ng/kg i.v.; anesthetized normotensive rats
Protocol: Normotensive rats weighing 300-400 g were anesthetized with urethane(1.5 g/kg, s.c.), and angiotensin I (300 ng/kg) was injected into the femoral vein of the rats. The pressor response to angiotensin I was measured with a pressure transducer connected to the carotid artery. Then, a test compound was injected intravenously thereto at a dose of 0.1 mg/kg, and angiotensin I (300 ng/kg) was further injected intravenously at intervals. The ACE-inhibitory activity of the test compound was estimated from the pressor responses to angiotensin I which were obtained before and after intraveous injection of the test compound.

[2] = test system: spontaneously hypertensive rats (SHR); test: Hypotensive activity in SHR; type: in vivo, rat (SHR); conditions: 50 mg/kg orally
Protocol: A test compound (dose: 50 mg/kg) suspended in an aqueous carboxymethylcellulose solution was administered orally to spotaneously hypertensive rats (SHR) fasted for a day. The systolic blood pressure of the rats was measured by the tail plethysmographic technique (The Journal of Laboratory and Clinic Medicine 78(1971), page 957). The hypotensive activity of the test compound was estimated from the decreased level of blood pressure.

mice = test: Oral toxicity in mice; type: in vivo; conditions: 3 g/kg
From the text: . Moreover, the compound (I) of the present invention decreases aggregation of blood platelets and can be used to improve blood flow disturbances or other vascular diseases due to the formation of platelet aggregates (i.e., thrombus). Since the hypertensive disease is largely found in the aged subjects who show an increased tendency to capillary fragility or thrombosis, therefore, the compound (I) of the invention is useful to prevent, in addition to the treatment of hypertension, the genesis of thrombosis and other occlusive vascular diseases of such subjects. Further, the toxicity of the compound (I) is considerably low. […]

**Q.** With `C[C@H](CS)C(=O)N1Cc2ccccc2C[C@H]1C(=O)O` [(3S)-2-[(2S)-3-mercapto-2-methyl-propionyl]-1,2,3,4-tetrahydroisoquinoline-3-carboxylic acid] as the molecule, how does the inhibition at 100 µg/mL [1] read?
**A.** 86%

**Q.** And the “ACE-inhibitory activity in vivo (percentage inhibition of ACE activity in vivo)” value (ACE)?
**A.** 90%

**Q.** And the “Hypotensive activity in SHR: Duration of action” value [2]?
**A.** > 6 h

**Q.** And the “Hypotensive activity in SHR: Decrease in blood pressure” value ([2]; systolic, tail plethysmographic)?
**A.** ca. 20%

**Q.** And the “mortality five days after oral administration” value (mice)?
**A.** no mouse died
